Reference: doi:10.1101/2024.07.07.602414v1 (bioRxiv, 2024)

How the values were obtained:
[1] = type: physicochemical; settings: 30 mg/mL, CLSM and fast FLIM
Droplet microstructure = type: physicochemical; settings: CLSM and fast FLIM with SBD dye, 448 nm excitation
[2] = Encapsulation efficiency of guest fluorophores by droplets; type: physicochemical
[3] = Redox controlled droplet formation through LLPS; type: physicochemical

WCRY
droplet microstructure before oxidation ([1]; pH 7.5 (1 M NaOH), SBD dye): forms homogeneous droplets
droplet microstructure after oxidation by H2O2 ([1]; pH 7.5, 1 μL H2O2 (1M), 5 mins at room temperature): transform into the multiphasic droplets

WGWW
droplet microstructure (core-shell or homogeneous) (Droplet microstructure): show similar results with the R group

WYWW
behaviour of droplets when the fluorophores were added, pH 7.5 ([2]; pH 7.5, fluorophores added): tend to aggregates
behaviour of droplets when the fluorophores were added, pH 9.0 ([2]; pH 9.0, fluorophores added): relatively stable

YCGY
solubility in aqueous solution ([3]; aqueous solution, words only): very good solubility
state of the droplet emulsion after adding DTT ([3]; oxidised peptide, then DTT, 5 mins at room temperature, CLSM / bright field): clear solution
concentration at which the peptide still does not undergo LLPS ([3]; reduced (thiol) peptide, aqueous solution): 80000 µg/mL

YGYY
droplet microstructure (core-shell or homogeneous) (Droplet microstructure): show similar results with the R group

YRYY
droplet microstructure (core-shell or homogeneous) (Droplet microstructure): formed homogeneous droplets
